Assays:
Porphyromonas gingivalis [1] = assay: Determination of minimal inhibitory concentration (MIC), broth microplate, absorbance at 600 nm; type: cell-based; conditions: BCRC14417, P. gingivalis BCRC 14417, 24 hours anaerobic, 37° C., concentration at absorbance ≦0.5 at 600 nm
Method: Porphyromonas gingivalis was purchased from Food Industry Research and Development Institute ([…], Taiwan) with the accession number BCRC 14417. After thawing from frozen tube, Porphyromonas gingivalis was activated in the supplemented brain heart infusion broth, and cultured at 37° C. anaerobic condition (80% N2, 10% H2, 10% CO2) for 24 hours to 48 hours. […] Chlorhexidine was used as positive control. The 2.5% (v/v) dimethyl sulfoxide was used as normal control.

Porphyromonas gingivalis [2] = assay: Determination of minimal bactericidal concentration (MBC), plating on sBHI agar with 5% defibrinated sheep blood; type: cell-based
Method: Porphyromonas gingivalis was purchased from Food Industry Research and Development Institute ([…], Taiwan) with the accession number BCRC 14417. After thawing from frozen tube, Porphyromonas gingivalis was activated in the supplemented brain heart infusion broth, and cultured at 37° C. anaerobic condition (80% N2, 10% H2, 10% CO2) for 24 hours to 48 hours. […] Chlorhexidine was used as positive control. […]. After Porphyromonas gingivalis with said solution of Antrodia camphorata 95% ethanol extract or chlorhexidine were cultured at 37° C. under anaerobic condition (80% N2, 10% H2, 10% CO2) for 48 hours, 10 μl aliquot […] was added to supplemented brain heart infusion agar with 5% defibrinated sheep blood. Then, broth was gently coated uniformly onto supplemented brain heart infusion agar with 5% defibrinated sheep blood by a triangular sterilized glass rod and cultured at 37° C. anaerobic condition (80% N2, 10% H2, 10% CO2) for 5 days. […] ([…] Castro et al., 2009, Bioorganic & Medicinal Chemistry, 17:5332-5335)

[H]/N=C(\N/C(=N/[H])NCCCCCCNC(=N)NC(=N)Nc1ccc(Cl)cc1)Nc1ccc(Cl)cc1 [Chlorhexidine, Chlorhexidine digluconate]
MIC (Porphyromonas gingivalis [1]): 4 µg/mL | MBC (Porphyromonas gingivalis [2]; Porphyromonas gingivalis, BCRC14417): 4 µg/mL | colony growth on supplemented brain heart infusion agar with 5% defibrinated sheep blood (Porphyromonas gingivalis [2]; concentration above 4 μg/ml, FIG. 3): no colony growing
